Laboratory results taken from patent publication US20070098788A1, “NON-BENZ[…] COMPOSITIONS” (priority 2005, published 2007).

Experiments:
[1] = Particle size distribution by laser light scattering (Malvern); format: physicochemical; details: zaleplon used in Example 15 capsules; method not stated
[2] = cited from earlier work

Structure (SMILES) | D90 [1] | elimination half-life ([2]; in vivo) | onset of action ([2]; usually)
CCN(C(C)=O)c1cccc(-c2ccnc3c(C#N)cnn23)c1 [Zaleplon, N-[3-(3-cyanopyrazolo[1,5-α]pyrimidin-7-yl)phenyl]-N-ethylacetamide] | 195 μm |  | 
Cc1ccc(-c2nc3ccc(C)cn3c2CC(=O)N(C)C)cc1 [Zolpidem, N,N, 6-trimethyl-2-p-tolyl-imidazo[1,2-a]pyridine-3-acetamide] |  | 2 to 3 h | ≤ 15 min
